The target of test [1] is T1, ΔF508-CFTR (Homo sapiens, UniProt P13569, DEL508-508).
T1 construct: host or cells: CFBE41o-, doxycycline-inducible
The test can be described thus: CFTR cell surface levels using HRP-tagged ΔF508-CFTR expressing CFBE cells, intrinsic corrector capacity. Type of test: cell-based. The conditions noted are these: for EC50: read-out: EC50. A digest of the protocol: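 Here the cells express ΔF508-CFTR with horseradish peroxidase inserted in extracellular loop 4, so only rescued channel at the surface gives luminescent signal. Compounds act on their own, 20 h at the reduced temperature of 33 °C; values are percent activity relative to DMSO and a 3 μM corrector.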

Test [2] addresses T1, ΔF508-CFTR. Briefly: CFTR cell surface levels using HRP-tagged ΔF508-CFTR expressing CFBE cells, in the presence of a co-corrector. Type of test: cell-based. The following applies: HRP-tagged ΔF508-CFTR expressing CFBE cells, in the presence of 3 μM co-corrector; for EC50: read-out: EC50. A digest of the protocol: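 Cells were seeded with 0.5 μg/mL doxycycline and held 68 h at 37 °C. Test compounds plus 3 μM co-corrector (final 0.1% DMSO) were then added for 20 h at 33 °C. Washed cells received HRP substrate, and luminescence was normalized between DMSO and 3 μM co-corrector controls.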

Where [3] appears, read: HRP-tagged ΔF508-CFTR expressing CFBE cells, intrinsic corrector capacity (no co-corrector), 33° C., 20 hours.
The mark [4] stands for this setting: HRP-tagged ΔF508-CFTR CFBE41o- cells, compounds alone (intrinsic corrector capacity), 20 hours at 33° C., positive control 3 μM corrector.
[5] abbreviates: HRP-tagged ΔF508-CFTR CFBE41o- cells, compounds alone (intrinsic corrector capacity), 20 hours at 33° C.

Here are results for 20 compounds from US9796711B2, “Substituted pyrazolo[3,4-b]pyridin-6-carboxylic acids and method of use” (AbbVie S.àr.l., priority 2015, dated 2017).

T1 sequence (P13569 with tags, fused parts or gaps DEL508-508): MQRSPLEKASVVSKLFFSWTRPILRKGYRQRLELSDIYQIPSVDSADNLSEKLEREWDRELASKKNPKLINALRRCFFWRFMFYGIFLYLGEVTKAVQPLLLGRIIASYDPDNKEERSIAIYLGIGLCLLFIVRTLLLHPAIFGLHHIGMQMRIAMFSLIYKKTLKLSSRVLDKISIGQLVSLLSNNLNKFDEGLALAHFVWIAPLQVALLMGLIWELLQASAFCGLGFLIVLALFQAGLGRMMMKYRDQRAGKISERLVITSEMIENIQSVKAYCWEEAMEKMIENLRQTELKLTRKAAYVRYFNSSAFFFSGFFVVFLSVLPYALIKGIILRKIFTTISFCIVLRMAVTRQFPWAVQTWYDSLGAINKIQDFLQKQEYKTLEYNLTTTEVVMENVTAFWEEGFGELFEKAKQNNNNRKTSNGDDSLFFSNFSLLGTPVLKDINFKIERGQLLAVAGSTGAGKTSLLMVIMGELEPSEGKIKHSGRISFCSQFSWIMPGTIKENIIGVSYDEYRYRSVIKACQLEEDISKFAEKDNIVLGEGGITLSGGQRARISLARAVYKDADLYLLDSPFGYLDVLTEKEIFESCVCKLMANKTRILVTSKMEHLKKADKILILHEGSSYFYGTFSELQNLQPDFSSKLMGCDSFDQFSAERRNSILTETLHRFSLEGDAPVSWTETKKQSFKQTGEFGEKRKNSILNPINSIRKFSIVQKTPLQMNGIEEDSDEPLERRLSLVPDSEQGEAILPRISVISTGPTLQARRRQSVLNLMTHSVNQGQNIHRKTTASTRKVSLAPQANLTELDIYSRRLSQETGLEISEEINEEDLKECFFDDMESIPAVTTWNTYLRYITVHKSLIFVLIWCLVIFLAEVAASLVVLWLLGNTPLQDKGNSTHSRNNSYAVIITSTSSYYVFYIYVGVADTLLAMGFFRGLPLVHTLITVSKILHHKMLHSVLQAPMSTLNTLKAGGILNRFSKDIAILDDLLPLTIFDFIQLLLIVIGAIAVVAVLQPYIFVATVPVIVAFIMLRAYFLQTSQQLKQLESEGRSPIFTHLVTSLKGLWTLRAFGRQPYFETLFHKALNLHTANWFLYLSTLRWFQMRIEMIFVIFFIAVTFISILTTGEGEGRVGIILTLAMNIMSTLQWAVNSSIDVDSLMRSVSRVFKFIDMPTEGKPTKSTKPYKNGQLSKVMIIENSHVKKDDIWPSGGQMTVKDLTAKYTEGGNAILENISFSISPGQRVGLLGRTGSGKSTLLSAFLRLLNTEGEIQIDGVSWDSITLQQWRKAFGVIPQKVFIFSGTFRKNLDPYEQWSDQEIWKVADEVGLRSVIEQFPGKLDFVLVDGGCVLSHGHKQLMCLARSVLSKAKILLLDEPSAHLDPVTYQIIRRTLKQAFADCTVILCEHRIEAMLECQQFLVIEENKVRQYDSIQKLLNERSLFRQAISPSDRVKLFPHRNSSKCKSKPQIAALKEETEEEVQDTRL

Take `CC(C)c1nn(-c2ccc(F)cc2)c2nc(C(=O)O)cc(N3CCN(C(=O)N(C)C)CC3)c12` [compound 774, 4-[4-(dimethylcarbamoyl)piperazin-1-yl]-1-(4-fluorophenyl)-3-(propan-2-yl)-1H-pyrazolo[3,4-b]pyridine-6-carboxylic acid]: in test [1] (setting [3]), the “% Activation” value is reported as 163% and the EC50 was found to be 1670 nM. In test [2], the “% Activation” value turned out to be 375.6% and the EC50 turned out to be 1670 nM.

As for `COCCC1(COc2cc(C(=O)O)nc3c2c(C)nn3-c2ccccc2)CC1` [compound 388, 4-{[1-(2-methoxyethyl)cyclopropyl]methoxy}-3-methyl-1-phenyl-1H-pyrazolo[3,4-b]pyridine-6-carboxylic acid], the “% Activation” value in test [1] (setting [4]) worked out at 50.555%; in test [2] it was 171.6%. Besides, the EC50 in test [1] (setting [5]) was 1670 nM; in test [2], 1460 nM.

Consider `COCCOCC1(F)CCN(c2cc(C(=O)O)nc3c2c(C2CCC2)nn3-c2ccccc2)C1` (centres unmarked) [compound 532, 3-cyclobutyl-4-{3-fluoro-3-[(2-methoxyethoxy)methyl]pyrrolidin-1-yl}-1-phenyl-1H-pyrazolo[3,4-b]pyridine-6-carboxylic acid], for which the figures for the “% Activation” value in test [1] (setting [3]) and in test [2] were 107.05% and 271.77%, respectively. In addition, the EC50 in test [1] (setting [3]) stood at 707 nM; in test [2] it was 349 nM.

In the case of `Cc1nn(-c2ccccc2)c2nc(C(=O)O)cc(N3CC[C@H](F)C3)c12` [compound 300, 4-[(3S)-3-fluoropyrrolidin-1-yl]-3-methyl-1-phenyl-1H-pyrazolo[3,4-b]pyridine-6-carboxylic acid], the “% Activation” value in test [1] (setting [4]) turned out to be 41.065%; in test [2], 165%. Besides, the EC50 in test [1] (setting [5]) and in test [2] was 2510 nM throughout.

As to `O=C(O)c1cc(N2CCN(CC3OCCO3)CC2)c2c(C3CCC3)nn(-c3ccccc3)c2n1` [compound 684, 3-cyclobutyl-4-{4-[(1,3-dioxolan-2-yl)methyl]piperazin-1-yl}-1-phenyl-1H-pyrazolo[3,4-b]pyridine-6-carboxylic acid], in test [1] (setting [3]), the “% Activation” value was 230.2% and the EC50 amounted to 380 nM. In test [2], the “% Activation” value was 384.65% and the EC50 came out at 236 nM.

Consider `CC(C)c1nn(-c2ccc(F)c(F)c2)c2nc(C(=O)O)cc(-c3ccc(N(C)C4CCOCC4)cc3)c12` [compound 278, 1-(3,4-difluorophenyl)-4-{4-[methyl(oxan-4-yl)amino]phenyl}-3-(propan-2-yl)-1H-pyrazolo[3,4-b]pyridine-6-carboxylic acid], for which the “% Activation” value is reported as 259.1% in test [1] (setting [4]) and 446.55% in test [2]. The EC50 is 991 nM in test [1] (setting [5]) and 676 nM in test [2].

In the case of `O=C(O)c1cc(N2CCC(O)CC2)c2c(C3CCC3)nn(-c3ccccc3)c2n1` [compound 501, 3-cyclobutyl-4-(4-hydroxypiperidin-1-yl)-1-phenyl-1H-pyrazolo[3,4-b]pyridine-6-carboxylic acid], in test [1] (setting [3]), the “% Activation” value was 152.7% and the EC50 amounted to 629 nM. In addition, in test [2], the “% Activation” value came out at 367.65% and the EC50 is 353 nM.

For `CC(C)c1nn(C2CCN(CC(F)(F)F)CC2)c2nc(C(=O)O)cc(-c3ccc(N4CCOCC4)cc3)c12` [compound 117, 4-[4-(morpholin-4-yl)phenyl]-3-(propan-2-yl)-1-[1-(2,2,2-trifluoroethyl)piperidin-4-yl]-1H-pyrazolo[3,4-b]pyridine-6-carboxylic acid], the “% Activation” value is on record as 70.77% in test [1] (setting [4]) and 229.45% in test [2]. Further, the EC50 in test [1] (setting [5]) was 1100 nM; in test [2] it was 765 nM.

As to `Cc1cccc(-n2nc(C(C)C)c3c(N4CCC5(CC4)COC5)cc(C(=O)O)nc32)c1` [compound 202, 1-(3-methylphenyl)-4-(2-oxa-7-azaspiro[3.5]nonan-7-yl)-3-(propan-2-yl)-1H-pyrazolo[3,4-b]pyridine-6-carboxylic acid], the figures for the “% Activation” value in test [1] (setting [4]) and in test [2] were 136.8% and 309.3%, respectively. For the same compound, the EC50 in test [1] (setting [5]) amounted to 795 nM; in test [2], 609 nM.

`COCCOCC1(F)CCCN(c2cc(C(=O)O)nc3c2c(C2CCC2)nn3-c2ccccc2)C1` (centres unmarked) [compound 462, 3-cyclobutyl-4-{3-fluoro-3-[(2-methoxyethoxy)methyl]piperidin-1-yl}-1-phenyl-1H-pyrazolo[3,4-b]pyridine-6-carboxylic acid]: in test [1] (setting [3]), the “% Activation” value is recorded as 156.2% and the EC50 amounted to 486 nM. For the same compound, in test [2], the “% Activation” value is 316.85% and the half-maximal effective concentration (EC50) is 318 nM.

Consider `CC(=O)N1CCC2CN(c3cc(C(=O)O)nc4c3c(C(C)C)nn4-c3cccc(C)c3)CCC21` (centres unmarked) [compound 255, 4-(1-acetyloctahydro-5H-pyrrolo[3,2-c]pyridin-5-yl)-1-(3-methylphenyl)-3-(propan-2-yl)-1H-pyrazolo[3,4-b]pyridine-6-carboxylic acid], for which the results for the “% Activation” value in test [1] (setting [4]) and in test [2] were 120.77% and 302.97%, respectively. The EC50 in test [1] (setting [5]) is 442 nM; in test [2], 294 nM.

For `CC(C)c1nn(-c2cccc(F)c2)c2nc(C(=O)O)cc(-c3ccc(N(C)C4CCOCC4)nc3)c12` [compound 283, 1-(3-fluorophenyl)-4-{6-[methyl(oxan-4-yl)amino]pyridin-3-yl}-3-(propan-2-yl)-1H-pyrazolo[3,4-b]pyridine-6-carboxylic acid], the “% Activation” value is recorded as 233.17% in test [1] (setting [4]) and 435.2% in test [2]. In addition, the figures for the EC50 in test [1] (setting [5]) and in test [2] were 649 nM and 367 nM, respectively.

On to `Cc1nn(-c2ccccc2)c2nc(C(=O)O)cc(OCCN3CCCC3)c12` [compound 342, 3-methyl-1-phenyl-4-[2-(pyrrolidin-1-yl)ethoxy]-1H-pyrazolo[3,4-b]pyridine-6-carboxylic acid], for which the “% Activation” value in test [1] (setting [4]) turned out to be 19.4%; in test [2], 138.5%. Also, the values for the EC50 in test [1] (setting [5]) and in test [2] were 7500 nM and 3370 nM, respectively.

Take `COCC1(F)CCN(c2cc(C(=O)O)nc3c2c(C2CCC2)nn3-c2ccccc2)C1` (centres unmarked) [compound 508, 3-cyclobutyl-4-[3-fluoro-3-(methoxymethyl)pyrrolidin-1-yl]-1-phenyl-1H-pyrazolo[3,4-b]pyridine-6-carboxylic acid]: in test [1] (setting [3]), the “% Activation” value worked out at 104.6% and the EC50 turned out to be 1110 nM. Moreover, in test [2], the “% Activation” value is reported as 271.8% and the EC50 came out at 451 nM.

As to `O=C(O)c1cc(N2CCN(C3CCC3)CC2)c2c(C3CCC3)nn(-c3ccccc3)c2n1` [compound 450, 3-cyclobutyl-4-(4-cyclobutylpiperazin-1-yl)-1-phenyl-1H-pyrazolo[3,4-b]pyridine-6-carboxylic acid], the entries for the “% Activation” value in test [1] (setting [3]) and in test [2] were 165.85% and 377.1%, respectively. Also, the EC50 turned out to be 1090 nM in test [1] (setting [3]) and 456 nM in test [2].

On to `Cc1nn(-c2ccccc2)c2nc(C(=O)O)cc(O[C@@H]3CCN(C)C3)c12` [compound 338, 3-methyl-4-{[(3R)-1-methylpyrrolidin-3-yl]oxy}-1-phenyl-1H-pyrazolo[3,4-b]pyridine-6-carboxylic acid], for which the “% Activation” value in test [1] (setting [4]) is 12.64%; in test [2] it was 135.7%. Besides, the 50% effective concentration (EC50) in test [1] (setting [5]) and in test [2] was 7500 nM throughout.

Consider `O=C(O)c1cc(N2CCC(N3CCOCC3)CC2)c2c(C3CCC3)nn(-c3ccc4c(c3)CC4)c2n1` [compound 911, 1-(bicyclo[4.2.0]octa-1,3,5-trien-3-yl)-3-cyclobutyl-4-[4-(morpholin-4-yl)piperidin-1-yl]-1H-pyrazolo[3,4-b]pyridine-6-carboxylic acid], for which the “% Activation” value is 222.45% in test [1] (setting [3]) and 405.9% in test [2]. Also, the EC50 in test [1] (setting [3]) stood at 190 nM; in test [2], 74 nM.

Regarding `CC(C)c1nn(-c2ccc(F)cc2)c2nc(C(=O)O)cc(N3CCCN(C4CCC4)CC3)c12` [compound 767, 4-(4-cyclobutyl-1,4-diazepan-1-yl)-1-(4-fluorophenyl)-3-(propan-2-yl)-1H-pyrazolo[3,4-b]pyridine-6-carboxylic acid], in test [1] (setting [3]), the “% Activation” value is reported as 59.96% and the EC50 worked out at 1670 nM. In addition, in test [2], the “% Activation” value worked out at 210.1% and the EC50 is 1670 nM.

For `COCCN(C)c1ccc(-c2cc(C(=O)O)nc3c2c(C(C)C)nn3-c2cccc(N3CCCC3)c2)cc1` [compound 238, 4-{4-[(2-methoxyethyl)(methyl)amino]phenyl}-3-(propan-2-yl)-1-[3-(pyrrolidin-1-yl)phenyl]-1H-pyrazolo[3,4-b]pyridine-6-carboxylic acid], the “% Activation” value was determined as 393.7% in test [1] (setting [4]) and 613.4% in test [2]. The EC50 is 827 nM in test [1] (setting [5]) and 540 nM in test [2].

Take `CC(C)(C)c1nn(C2CCCC2)c2nc(C(=O)O)cc(-c3cnc(N4CCOCC4)nc3)c12` [compound 100, 3-tert-butyl-1-cyclopentyl-4-[2-(morpholin-4-yl)pyrimidin-5-yl]-1H-pyrazolo[3,4-b]pyridine-6-carboxylic acid]: the “% Activation” value in test [1] (setting [4]) worked out at 115.7%; in test [2], 310%. Further, the EC50 in test [1] (setting [5]) came to 981 nM; in test [2] it was 457 nM.
